Columns and labels:
[1] = molecular target: T1, DesII (Streptomyces venezuelae, UniProt Q9ZGH1); test: X-ray crystal structure, […] Å; type: binding
T1 construct: C-terminal His6-tag kept; selenomethionine derivative used for phasing; [Fe4S4] cluster; N-terminal 7-9 residues disordered in crystal

[2] = molecular target: T2, DesII (second DesII expression construct) (Streptomyces venezuelae, UniProt Q9ZGH1); test: X-ray crystal structure, […] Å; type: binding; settings: coordinates fourth iron of [Fe4S4] cluster in one monomer; pH 6.0 crystals
T2 construct: pSJ5 vector, TrxA fusion, His8-tag and TEV site; N-terminal tag removed by TEV; [Fe4S4] cluster; loop D323-E337 disordered
T2 sequence (Q9ZGH1 1-485): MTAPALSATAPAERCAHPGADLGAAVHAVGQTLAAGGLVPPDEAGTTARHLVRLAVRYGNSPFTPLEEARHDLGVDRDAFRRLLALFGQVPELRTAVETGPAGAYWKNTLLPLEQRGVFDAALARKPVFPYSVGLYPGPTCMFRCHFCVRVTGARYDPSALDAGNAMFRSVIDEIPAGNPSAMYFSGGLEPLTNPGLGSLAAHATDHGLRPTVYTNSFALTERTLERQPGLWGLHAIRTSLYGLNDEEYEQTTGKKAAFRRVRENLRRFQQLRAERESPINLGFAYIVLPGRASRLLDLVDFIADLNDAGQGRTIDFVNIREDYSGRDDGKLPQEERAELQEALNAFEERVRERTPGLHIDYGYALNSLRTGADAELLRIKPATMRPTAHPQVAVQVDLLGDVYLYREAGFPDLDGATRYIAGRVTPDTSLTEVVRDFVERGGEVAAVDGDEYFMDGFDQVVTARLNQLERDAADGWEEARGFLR

[3] = molecular target: T3, DesII (Streptomyces venezuelae, UniProt Q9ZGH1, E408Q); test: deaminase activity assay; type: biochemical; settings: deamination
T3 construct: C-terminal His6-tag kept; selenomethionine derivative used for phasing; [Fe4S4] cluster; N-terminal 7-9 residues disordered in crystal

[4] = molecular target: T4, DesII (Streptomyces venezuelae, UniProt Q9ZGH1, E408A); test: deaminase activity assay; type: biochemical; settings: deamination
T4 construct: C-terminal His6-tag kept; selenomethionine derivative used for phasing; [Fe4S4] cluster; N-terminal 7-9 residues disordered in crystal

[5] = molecular target: T1, DesII; test: deaminase activity assay; type: biochemical; settings: deamination

T4 sequence (Q9ZGH1 whole entry E408A, the tested form may be a part): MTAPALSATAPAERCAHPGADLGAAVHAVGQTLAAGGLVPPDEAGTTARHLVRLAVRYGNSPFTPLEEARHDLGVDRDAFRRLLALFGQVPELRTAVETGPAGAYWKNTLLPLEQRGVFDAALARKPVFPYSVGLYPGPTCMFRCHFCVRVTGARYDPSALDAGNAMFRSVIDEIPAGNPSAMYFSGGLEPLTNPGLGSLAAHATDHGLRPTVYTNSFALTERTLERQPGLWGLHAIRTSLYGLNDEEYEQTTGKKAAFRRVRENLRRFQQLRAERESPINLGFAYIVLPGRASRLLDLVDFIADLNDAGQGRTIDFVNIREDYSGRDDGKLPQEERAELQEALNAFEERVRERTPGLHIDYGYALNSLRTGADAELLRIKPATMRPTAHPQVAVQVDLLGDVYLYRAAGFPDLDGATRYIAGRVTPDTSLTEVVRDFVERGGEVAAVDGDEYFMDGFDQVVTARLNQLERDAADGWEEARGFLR
T3 sequence (Q9ZGH1 whole entry E408Q, the tested form may be a part): as the sequence (Q9ZGH1 whole entry E408A, the tested form may be a part) above, with A408Q counted along it

Structure (SMILES): CSCC[C@H](N)C(=O)O [Met, methionine]
- X-ray crystal structure, 2.33 Å ([1]; active sites of chains b and d): with methionine bound in the active sites of chains b and d
- X-ray crystal structure, 2.04 Å [2]: coordinated with a water molecule and the other with methionine

Structure (SMILES): C[S+](CC[C@H](N)C(=O)O)C[C@H]1O[C@@H](n2cnc3c(N)ncnc32)[C@H](O)[C@@H]1O (stereo partly drawn) [SAM, S-adenosyl-L-methionine]
- X-ray crystal structure, 2.33 Å ([1]; coordinated to [Fe4S4] cluster, chains a and c): A single molecule of SAM was found coordinated to the [Fe4S4] cluster in chains a

Structure (SMILES): Cc1cn([C@H]2C[C@H](O)[C@@H](COP(=O)(O)OP(=O)(O)O[C@H]3O[C@H](C)[C@@H](N)[C@H](O)[C@H]3O)O2)c(=O)[nH]c1=O [compound 1, TDP-4-amino-4,6-dideoxy-D-glucose]
- deaminase activity assay [3]: E408A and E408Q mutants were both constructed and found to retain deaminase activity
- deaminase activity assay [4]: E408A and E408Q mutants were both constructed and found to retain deaminase activity
- deaminase activity assay [5]: found to retain deaminase activity comparable to that of wildtype enzyme

Source: paper PMC11434129, “Mechanistic Insights from the Crystal Structure and Computational Analysis of the Radical SAM Deaminase DesII” (Advanced Science, 2024)
